{"source": "patent US20080009480A1", "about": "“CYCLOPENTA[b][1,4]DIAZEPINO[6,7,1-hi]INDOLES AND DERIVATIVES” (Wyeth, priority 2000, published 2008)", "key": {"[1]": {"biological_target": "T1, human 5-hydroxytryptamine2C (h5HT2C) receptor (Homo sapiens, UniProt P28335)", "T1 sequence (P28335 33-458)": "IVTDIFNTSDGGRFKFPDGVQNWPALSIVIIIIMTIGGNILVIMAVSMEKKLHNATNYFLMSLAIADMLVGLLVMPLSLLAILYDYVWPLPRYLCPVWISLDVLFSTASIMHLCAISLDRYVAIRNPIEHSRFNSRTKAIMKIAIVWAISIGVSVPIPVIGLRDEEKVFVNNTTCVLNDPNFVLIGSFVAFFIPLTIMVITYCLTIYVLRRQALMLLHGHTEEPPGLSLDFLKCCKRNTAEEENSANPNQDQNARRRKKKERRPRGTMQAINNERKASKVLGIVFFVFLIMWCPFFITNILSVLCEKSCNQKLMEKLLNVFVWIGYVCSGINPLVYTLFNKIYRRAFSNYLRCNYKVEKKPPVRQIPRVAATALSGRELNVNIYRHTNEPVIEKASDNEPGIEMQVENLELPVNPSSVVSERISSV", "assay": "5HT2C receptor binding test procedure ([125I]DOI displacement, CHO cell membranes)"}, "human 5-HT2C receptor": {"biological_target": "T2, human 5-HT2C receptor (Homo sapiens, UniProt P28335)", "T2 construct": "expressed in transfected cells; host or cells: CHO cells", "T2 sequence (P28335 33-458)": "T1 sequence (P28335 33-458)", "assay": "Stimulation of [3H] inositol monophosphate production by 5HT2C agonists in transfected CHO cells", "format": "cell-based", "conditions": "read-out: 5HT2C % Emax (5HT, 100%)", "quoted_text": "One (1) ml of maintenance medium containing 1 μCi/ml myo-[^3H] inositol was added to each well. After 48 hours labeling, the cells were washed once with 0.5 ml DMEM containing 25 mM HEPES and 10 mM LiCl, then preincubated with the medium for 30 min (antagonists were included in this period if tested). At the end of the preincubation, the medium was removed, the cells were then incubated with test compounds (in presence of antagonists if needed) for 30 min. The reaction was terminated by removal of the incubation solution and addition of 0.5 ml ice-cold 5% PCA, followed by 15 to 30 min incubation on ice. 200 μl of 0.5 M Tes/1.5 M K2CO3 was added to each well to neutralize to pH 7, and plates were left on ice for another 15 to 30 min to precipitate all salts. The liquid and solid phases were separated by centrifugation.\nA portion (350 μl) of the upper aqueous phase was applied to Dowex AG-1X8 (formate form, 100-200 mesh) columns. The columns were then washed stepwise with 10 ml of water and 10 ml of 25 mM ammonium formate to remove free myo-[^3H]inositol and deacylated phosphoinositol, respectively. Finally 10 ml of 0.2 M ammonium formate solution was applied to the columns to elute [^3H] inositol monophosphate ([^3H] IP1) directly into scintillationvials.\nA 3-parameter logistic function is used to generate estimate of EC50/IC50."}, "male Sprague-Dawley rats": {"system": "male Sprague-Dawley rats", "assay": "Effects of compounds on feeding behavior in rats (24 hr fast, 2 hour food intake)", "format": "in vivo, rat", "conditions": "ip, dose giving 50% reduction in food intake", "protocol": "Effects of Compounds on Feeding Behavior in Rats\nEight (8) male Sprague-Dawley rats weighing 150-180 g were separated into individual cages and acclimated to a powdered diet for 2 weeks. During this period and throughout the test procedure, the food cup and the animals were weighed daily. Following the acclimation period, animals were fasted for 24 hours and then injected with either vehicle or one of 4 doses of the test compound. Food intake was assessed at 2 and 24 hours following compound administration. Compounds to be evaluated were injected 1-2× per week until all animals had received all doses of the test compound. The order of doses were chosen using to a modified Latin Square design. Additional studies may be conducted in satieted rats at the start of the dark cycle. Compounds were injected i.p, s.c. or p.o. At the end of the study effects of the test compound on food intake was evaluated using a repeated measures ANOVA. Data were collected were 2 hour food intake (g). Data were subjected to one-way ANOVA with posthoc t-tests to assess group differences. Where appropriate, ED50 values were calculated."}, "[2]": {"conditions": "several animal species and humans; Cowen et al. 1995; cited from earlier work"}, "[3]": {"conditions": "rat; Martin et al. 1989; cited from earlier work"}, "[4]": {"conditions": "5-HT2C Affinity DOI/Agonist Binding (Ki, μM), [125I]DOI agonist binding"}}, "note": "Read-outs that look alike come from different tables or passages of the source."}
{"compound": "C[C@@H]1NCCN2c3c1cccc3[C@@H]1CCC[C@@H]12", "note": "(relative stereo) [Example 12, rel-(4S,7bS,10aS)-4-Methyl-1,2,3,4,8,9,10,10a-Octahydro-7bH-Cyclopenta[b][1,4]Diazepino[6,7,1-hi]Indole]", "values": [{"measurement": "Ki", "setting": "[1]; [4]", "result": "> 5", "unit": "µM"}]}
{"compound": "C[C@H]1NCCN2c3c1cccc3[C@@H]1CCC[C@@H]12", "note": "(relative stereo) [Example 13, rel-(4R,7bS,10aS)-4-Methyl-1,2,3,4,8,9,10,10a-Octahydro-7bH-Cyclopenta[b][1,4]Diazepino[6,7,1-hi]Indole]", "values": [{"measurement": "Ki", "setting": "[1]; [4]", "result": 0.31, "unit": "µM"}]}
{"compound": "CC1CN2c3c(cccc3C3CCCC32)CN1", "note": "(single isomer, unassigned) [Example 7]", "values": [{"measurement": "Ki", "setting": "[1]; [4]", "result": 6, "unit": "µM"}]}
{"compound": "CC1CN2c3c(cccc3C3CCCC32)CN1", "note": "(single isomer, unassigned) [Example 8]", "values": [{"measurement": "Ki", "setting": "[1]; [4]", "result": 5.9, "unit": "µM"}]}
{"compound": "CC1CN2c3c(cccc3C3CCCC32)CN1", "note": "(single isomer, unassigned) [Example 9]", "values": [{"measurement": "Ki", "setting": "[1]; [4]", "result": 0.91, "unit": "µM"}]}
{"compound": "CC1CN2c3c(cccc3C3CCCC32)CN1", "note": "(single isomer, unassigned) [Example 10]", "values": [{"measurement": "Ki", "setting": "[1]; [4]", "result": 4.3, "unit": "µM"}]}
{"compound": "OC[C@H]1CN2c3c(cccc3C3CCCC32)CN1", "note": "(single isomer, unassigned) [Example 11]", "values": [{"measurement": "Ki", "setting": "[1]; [4]", "result": 1.9, "unit": "µM"}]}
{"compound": "c1cc2c3c(c1)c1c(n3CCNC2)CCC1", "note": "[Example 1, 1,2,3,4,9,10-Hexahydro-8H-cyclopenta[b][1,4]diazepino[6,7,1-hi]indole]", "values": [{"measurement": "melting point", "result": "66 to 68", "unit": "°C"}]}
{"compound": "c1cc2c3c(c1)C1CCCC1N3CCNC2", "note": "(stereo not drawn) [Example 2, 1,2,3,4,8,9,10,10a-octahydro-7bH-cyclopenta[b][1,4]diazepino[6,7,1-hi]indole]", "values": [{"measurement": "Emax", "setting": "human 5-HT2C receptor", "result": 110, "unit": "%"}, {"measurement": "ED50", "setting": "male Sprague-Dawley rats; Rattus norvegicus, read-out: ED50", "result": 8.05, "unit": "mg/kg"}]}
{"compound": "c1cc2c3c(c1)[C@@H]1CCC[C@@H]1N3CCNC2", "note": "[Example 4A, (7bS,10aS)-1,2,3,4,8,9,10,10a-octahydro-7bH-cyclopenta-[b][1,4]diazepino-[6,7,1-hi]indole]", "values": [{"measurement": "Emax", "setting": "human 5-HT2C receptor", "result": 40, "unit": "%"}]}
{"compound": "c1cc2c3c(c1)[C@H]1CCC[C@H]1N3CCNC2", "note": "[Example 4B, 7bR,10aR)-1,2,3,4,8,9,10,10a-octahydro-7bH-cyclopenta-[b][1,4]diazepino[6,7,1-hi]indole]", "values": [{"measurement": "ED50", "setting": "male Sprague-Dawley rats", "result": 2.93, "unit": "mg/kg"}]}
{"compound": "Cc1cc2c3c(c1)c1c(n3CCNC2)CCC1", "note": "[Example 6, 6-Methyl-1,2,3,4,9,10-hexahydro-8H-cyclopenta[b][1,4]diazepino[6,7,1-hi]indole]", "values": [{"measurement": "Ki", "setting": "[1]; read-out: 5HT2C Affinity DOI/Agonist binding (Ki), [125I]DOI agonist binding", "result": 0.985, "unit": "µM"}, {"measurement": "melting point", "result": "168 to 170", "unit": "°C"}]}
{"compound": "CSc1ccc2c(c1)C(N1CCN(C)CC1)Cc1ccccc1S2", "note": "(stereo not drawn) [Methiothepin, reference compound]", "values": [{"measurement": "Ki", "setting": "[1]; reference compounds, [125I]DOI binding, h5HT2C in CHO membranes, read-out: Ki value and 95% confidence interval", "result": 0.0046, "unit": "µM"}]}
{"compound": "COc1cc(CC(C)N)c(OC)cc1I", "note": "(stereo not drawn) [[^125I] DOI, reference compound]", "values": [{"measurement": "Kd", "setting": "[1]; read-out: dissociation constant, KD of [125I] DOI at the human serotonin 5HT2C receptor, saturation binding with increasing concentrations of [125I] DOI", "result": 0.0004, "unit": "µM"}]}
{"compound": "Clc1cccc(N2CCNCC2)c1", "note": "[mCPP, meta-chlorophenylpiperazine]", "values": [{"measurement": "effect on food intake", "setting": "[2]", "result": "decreases food intake"}, {"measurement": "effect on conditioned avoidance responding (CAR)", "setting": "[3]", "result": "block conditioned avoidance responding"}]}
